Where a name gives a salt, the structure may show the parent alone.
Key:
[1] = test system: PC12 cells; assay: Inhibition of apoptosis in PC12 cells induced by NGF withdrawal (Cell Death Detection ELISA); format: cell-based, rat
Procedure: Inhibition of Apoptosis in PC12 Cells Induced by NGF Withdrawal
Rat PC12 cells (ATCC Accession Number CRL-1721) were grown in RPMI0-1640 buffer containing 10% heat-inactivated Fetal Bovine Serum (FBS) and 1% L-glutamine (Gibco). Cells were plated in 100 mm Collagen I Falcon plates (Becton Dickinson)at a density of ˜1×10^6-2×10^6 and passed every other day at 1:10 ratio (cells were trypsinized and centrifuged at 1000 rpm for 5 min. Cells were resuspended and plated at the density of 1-2×10^6 cells). Tamoxifen was dissolved in DMSO at a concentration of 10 mM. Subsequent dilutions were done in PC12 cell growth medium containing 1% FBS. […]
Cells were harvested at various time points after the NGF withdrawal procedure to determine the time course of cell death. […] Compounds were used at various concentrations and the extent of apoptosis that occurred in the presence of compounds was expressed as a percentage relative to control cultures that were exposed to vehicle only. […]
Cell death was measured using a Cell Death Detection ELISA (Boehringer-Mannheim Cat# 1774425) according to manufacturers instructions.The ELISA is a photometric enzyme-immunoassay which determines the amount of cytoplasmic histone-associated-DNA-fragments after induced cell death. […]

[2] = test system: mouse cortical neurons; assay: Inhibition of NMDA-induced death of mouse cortical neurons in primary cell culture (LDH); format: cell-based; details: result in words; NMDA-induced neuronal death is the patent's necrosis model
Procedure: Inhibition of NMDA-induced Death of Mouse Cortical Neurons in Primary Cell Culture
A glial feeder layer was prepared from post-natal day 1 or 2 mice. Cortices were dissected in a Ca^2+/Mg^2+-free balanced salt solution, minced, incubated in media stock (MS: GIBCO's MEM supplemented with bicarbonate, glucose, and glutamine) containing trypsin for 30 minutes at 37° C., and centrifuged at 1500 g for 5 minutes to produce a cell pellet. The pellet was re-suspended in plating media (MS supplemented with horse and fetal calf serum) and triturated with a glass pasteur pipette. Cells were plated in 24-well Falcon Primaria tissue culture dishes at a density of 0.5 hemispheres per plate. The dishes had been coated overnight with 10 mg/ml mouse laminin and 25 mg/ml poly-lysine, then washed three times with water. The glial feeder layer was maintained in a humidified atmosphere of 5% CO2/95% air at 37° C. for two weeks. […]
LDH activity was measured as follows: 50 ml of cell-culture media from each well was mixed with 200 ml 0.1 M KH2PO4 containing 30 mg NADH, in a 96-well microtitre plate. After 10 minutes at room temperature, 30 ml of 2.4 mM sodium pyruvate was added, and the absorbance of this solution at 340nm was immediately measured at 15 second intervals for approximately 6 minutes using a Molecular Devices Spectromax 250 plate-reader. […]

[3] = target: T1, emopamil binding protein (Cavia porcellus, UniProt Q60490); assay: Displacement of 3H-emopamil binding to guinea pig liver membranes; details: 0.96 nM (-)-3H-emopamil
T1 construct: Guinea pig liver membranes: 40 mg/mL original wet weight; from tissue; host or cells: guinea pig liver membranes (male guinea pigs)
T1 sequence (Q60490 1-229): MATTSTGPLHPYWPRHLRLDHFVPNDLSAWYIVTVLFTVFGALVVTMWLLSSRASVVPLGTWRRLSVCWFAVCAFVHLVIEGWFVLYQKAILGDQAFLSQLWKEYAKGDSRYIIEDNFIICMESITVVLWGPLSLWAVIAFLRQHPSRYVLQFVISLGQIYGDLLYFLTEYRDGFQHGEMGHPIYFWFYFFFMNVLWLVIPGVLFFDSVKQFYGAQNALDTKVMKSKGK
Procedure: Displacement of ^3H-Emopamil Binding to Guinea Pig Liver Membranes
The method of displacement of ^3H-emopamil binding was a modification of Zech et al (1991) Eur. J. Pharm. 208:119-130.
The Guinea-pig liver membranes were prepared as follows: Male guinea pigs were sacrificed by CO2 asphyxiation with dry ice. The livers were quickly excised and weighed and rinsed in membrane preparation buffer containing 10 mM Hepes, 1 mM Tris base-EDTA, 250 mM sucrose, pH 7.4. The livers were then minced homogenized in 10 times volume with a motor driven Teflon-glass homogenizer with three strokes on ice. The homogenate was centrifuged at 1000×g in a SS34 rotor for 5 minutes at 4° C. The supernatant was filtered through 4 layers of gauze and then centrifuged at 8000×g for 10 minutes 4° C. This resulting supernatant was centrifuged at 40,000×g for 15 minutes at 4° C. The resulting pellet was resuspended in assay buffer and centrifuged again at 40,000×g for 15 minutes at 4° C. This pellet was resuspended in assay buffer (2.5 fold with respect to original wet weight) and homogenized with one stroke with the Teflon-glass homogenizer. Aliquots of 1 mL were stored at −70° C.
The displacement assay was performed as follows: The reaction mixture contained: Assay buffer: 10 mM Tris-HCl, 0.1 mM phenylmethylsulfonyl fluoride (PMSF), 0.2% bovine serum albumin (BSA), pH 7.4 at […]. […]

SMILES	inhibition of apoptosis ([1]; result in words)	inhibition of necrosis [2]	percentage in the PC12 assay (extent of apoptosis relative to control) ([1]; relative to vehicle-only control cultures, 100% = no inhibition of apoptosis, 0% = total inhibition) [%]	IC50 [3] [nM]
CC/C(=C(\c1ccccc1)c1ccc(OCCN(C)C)cc1)c1ccccc1 [tamoxifen citrate]	inhibit both apoptosis and necrosis	inhibit both apoptosis and necrosis		
CC/C(=C(/c1ccc(OCCN(C)C)cc1)c1ccc(OC(=O)C(C)(C)C)cc1)c1ccccc1 [Example 11, 2,2-dimethyl-, 4-[1-[4-[2-(dimethylamino)ethoxy]phenyl]-2-phenyl-1-butenyl]phenyl Propanoic acid ester, (E)-]			41	75

From patent US6489481B1, “Method for treating neurological disorders” (AstraZeneca AB, priority 1998, dated 2002)
